# Reference: patent US7662842B2, “Thiazolidinone amides, thiazolidine carboxylic acid amides, and serine amides, including polyamine conjugates thereof, as selective anti-cancer agents” (Ohio State Univesity Research Foundation, priority 2003, dated 2010)
# Structures can show the parent of a compound that is named as a salt. Where two headings read alike, the source gives them in different places.
# What was measured:
# SKMEL-188 melanoma cells = test: Sulforhodamine B assay in melanoma cells, SKMEL-188; type: cell-based; conditions: SRB assay, 48 h incubation, melanoma cell line
# Method: (§1) SKMEL-188 cells were cultured in Ham's F10 medium (Gibco Invitrogen, Inc., Grand Island, N.Y.) plus 5% fetal bovine serum (Cellgro Mediatech, Inc., Herndon, Va.) and 1% antibiotic/antimycotic mixture (Sigma-Aldrich, Inc., St. Louis, Mo.). WM-164 cells (gift of Dr. Meenhard Herlyn, Wistar Inst., Philadelphia, Pa.) and human dermal fibroblasts (Cascade Biologics, Inc., Portland, Oreg.) were cultured in DMEM medium (Cellgro Mediatech, Inc.) supplemented with 5% fetal bovine serum, 1% antibiotic.antimycotic mixture and bovine insulin ([…], Sigma-Aldrich, Inc.). Human dermal fibroblasts were used as a control to examine the effects of compounds on stromal environment. Thus, the effect of the various compounds on melanoma cells versus fibroblasts would document their potential selectivity.
# (§2) Sulforhodamine B Assay: Cells were seeded into 96-well plates at 5000 cells/well. After 12 hours, media were changed and serial dilutions of compounds were added. Cells were incubated with each compound for 48 hours. Fresh media containing the test compound were changed ever 24 hours. Thereafter, total cell protein corresponding to cell numbers (both viable and non-viable cells) were measured using the sulforhodamine B (SRB) assay according to manufacturer's protocol (Sigma-Aldrich, Inc.) (Rubinstein et al., “Comparison of in vitro Anticancer Drug-screening Data Generated with a Tetrazolium Assay Versus a Protein Assay Against a Diverse Panel of Human Tumor Cell Lines,” J. Natl. Cancer Inst. 82:1113-1118 (1990); Dothager et al., “Synthesis and Identification of Small Molecules that Potently Induce Apoptosis in Melanoma Cells Through GI Cell Cycle Arrest,” J. Am. Chem. Soc. 127:8686-8696 (2005), each of which is hereby incorporated by reference in its entirety). Briefly, cells were fixed with trichloracetic acid, washed and incubated with sulforhodamine B for 30 minutes. After another wash, dye incorporated into the cells was solubilized and measured using a plate reader at 565 nm.
# (§3) Statistical Analysis: Data is presented as mean±SEM (n=6-8). […] Statistical analyses were performed with Student's t-test (*p<0.05; **p<0.005).
# (§4) DTIC and Taxol were assayed in the same way for comparison and served as internal quality controls in the different batches of assay. For comparison, the activities of 5R and 5S were measured.
# WM-164 cells = test: Sulforhodamine B assay in melanoma cells, WM-164; type: cell-based; conditions: SRB assay, 48 h incubation, melanoma cell line
# Method: as §1, §2, §3, §4
# human dermal fibroblasts = test: Sulforhodamine B assay, fibroblast control cells; type: cell-based; conditions: SRB assay, 48 h incubation
# Method: as §1, §2, §3, §4
# [1] = tested on: human breast cancer cell line (MCF-7); test: SRB cytotoxicity assay, MCF-7; type: cell-based
# Method: (§5) For in vitro cytotoxicity screening, 1000 to 5000 cells were plated into each well of 96-well plates depending on growth rate, and exposed to different concentrations of a test compound for 96 h in three to five replicates. All the compounds were dissolved in dimethyl sulfoxide at 5 to 20 mM, and diluted to desired concentrations in complete culture medium. Cell numbers at the end of the drug treatment were measured by the SRB assay (Gududuru et al., “Synthesis and Biological Evaluation of Novel Cytotoxic Phospholipids for Prostate Cancer,” Bioorg. Med. Chem. Lett. 14:4919-4923 (2004); Rubinstein et al., “Comparison of in vitro Anticancer-Drug-Screening Data Generated with a Tetrazolium Assay Versus a Protein Assay Against a Diverse Panel of Human Tumor Cell Lines,” J. Natl. Cancer Inst. 82:1113-1118 (1990), each of which is hereby incorporated by reference in its entirety). Briefly, the cells were fixed with 10% of trichloroacetic acid, stained with 0.4% SRB, and the absorbances at 540 nm was measured using a plate reader (DYNEX Technologies, Chantilly, Va.). […] A sandwich ELISA (Roche, Mannheim, Germany) utilizing monoclonal antibodies specific for DNA and histones was used to quantify degree of apoptosis induced by the analogs after 72 h exposure. This assay measures DNA-histone complexes (mono- and oligonucleosomes) released into cytoplasm from the nucleus during apoptosis.
# In vitro cytotoxicity assay was performed by the same sulforhodamine B (SRB) assay (described above). The compounds shown in Table 8 below where tested for activity against the breast cancer and ovarian cancer cell lines.
# RH7777 and CV-1 cells were used as negative controls and MCF-7 cell line (breast cancer) was included to examine the selectivity.
# [2] = tested on: PPC-1 human prostate cancer cells; test: SRB cytotoxicity assay, PPC-1; type: cell-based; conditions: prostate cancer cell line
# Method: (§6) Dr. Mitchell Steiner at University of Tennessee Health Science Center, kindly provided PPC-1 and TSU-Pr1 cells.
# as §5
# [3] = tested on: PC-3 human prostate cancer cells; test: SRB cytotoxicity assay, PC-3; type: cell-based; conditions: 96 h exposure, prostate cancer cell line
# Method: as §5
# [4] = tested on: TSU-Pr1 human prostate cancer cells; test: SRB cytotoxicity assay, TSU-Pr1; type: cell-based; conditions: prostate cancer cell line
# Method: as §6, §5
# [5] = tested on: LNCaP human prostate cancer cells; test: SRB cytotoxicity assay, LNCaP; type: cell-based; conditions: 96 h exposure, prostate cancer cell line
# Method: as §5
# [6] = tested on: DU-145 human prostate cancer cells; test: SRB cytotoxicity assay, DU-145; type: cell-based
# Method: as §5
# [7] = tested on: RH7777 rat hepatoma cells; test: SRB cytotoxicity assay, RH7777 control cell line; type: cell-based; conditions: SRB assay, 96 h exposure, control cell line
# Method: as §5
# CV-1 cells = test: SRB cytotoxicity assay, CV-1 control cell line; type: cell-based
# Method: For in vitro cytotoxicity screening, 1000 to 5000 cells were plated into each well of 96-well plates depending on growth rate, and exposed to different concentrations of a test compound for 96 h in three to five replicates. All the compounds were dissolved in dimethyl sulfoxide at 5 to 20 mM, and diluted to desired concentrations in complete culture medium. Cell numbers at the end of the drug treatment were measured by the SRB assay (Gududuru et al., “Synthesis and Biological Evaluation of Novel Cytotoxic Phospholipids for Prostate Cancer,” Bioorg. Med. Chem. Lett. 14:4919-4923 (2004); Rubinstein et al., “Comparison of in vitro Anticancer-Drug-Screening Data Generated with a Tetrazolium Assay Versus a Protein Assay Against a Diverse Panel of Human Tumor Cell Lines,” J. Natl. Cancer Inst. 82:1113-1118 (1990), each of which is hereby incorporated by reference in its entirety). Briefly, the cells were fixed with 10% of trichloroacetic acid, stained with 0.4% SRB, and the absorbances at 540 nm was measured using a plate reader (DYNEX Technologies, Chantilly, Va.). […] A sandwich ELISA (Roche, Mannheim, Germany) utilizing monoclonal antibodies specific for DNA and histones was used to quantify degree of apoptosis induced by the analogs after 72 h exposure. This assay measures DNA-histone complexes (mono- and oligonucleosomes) released into cytoplasm from the nucleus during apoptosis. RH7777 cells were employed because of nonspecific cytotoxicity of compound 4 in receptor-negative cells as well as receptor-positive prostate cancer cells.
# RH7777 and CV-1 cells were used as negative controls and MCF-7 cell line (breast cancer) was included to examine the selectivity. 5-Fluorouracil was used as reference drug.
# [8] = Homo sapiens, WM164, read-out: IC50 WM-164
# [9] = Homo sapiens, PPC-1, 96 h exposure
# [10] = read-out: IC50 DU-145, 96 h exposure, prostate cancer cell line
compound,measurement,setting,value
CCCCCCCCCCCCCCOCCCNCCCNC(=O)[C@@H](CO)NC(=O)OC(C)(C)C,IC50,"SKMEL-188 melanoma cells; SK-MEL-188, 48 h",3.8 µM
same,IC50,WM-164 cells; [8],3.3 µM
same,IC50,"human dermal fibroblasts; Homo sapiens, Fibroblast, 48 h",3.4 µM
"CCCCCCCCCCCCCCCCCCNC(=O)C1CSC(c2ccoc2)N1 (stereo not drawn) (as salt: hydrochloride) [Compound 12, 2-(furan-3-yl)-N-octadecylthiazolidine-4-carboxamide]",melting point,,99 °C
"CCCCCCCCCCCCCCCCCCNC(=O)[C@@H]1CSC(CCCCCCCCCCCC)N1 (mixture of isomers) [Compound 7, (2RS, 4R)-2-Dodecylthiazolidine-4-carboxylic acid octadecylamide]",melting point,,86 °C
"CCCCCCCCCCCCCCCCCCNC(=O)[C@@H]1CSC(C2CCCCC2)N1 (mixture of isomers) [Compound 8, (2RS, 4R)-2-Cyclohexylthiazolidine-4-carboxylic acid octadecylamide]",IC50,WM-164 cells; [8],> 50 µM
"CCCCCCCCCCCCCCCCCCNC(=O)[C@@H]1CSC(c2c[nH]c3ccccc23)N1 (mixture of isomers) [Compound 10, (2RS, 4R)-2-(1H-Indol-3yl)-thiazolidine-4-carboxylic acid octadecylamide]",IC50,"[1]; Homo sapiens, MCF7, SRB assay",10.6 µM
"CCCCCCCCCCCCCCCCCCNC(=O)[C@@H]1CSC(c2ccc(OC)cc2)N1.Cl (mixture of isomers) [Compound 15, (2RS, 4R)-2-(4-Methoxy-phenyl)-thiazolidine-4-carboxylic acid octadecylamide Hydrochloride]",IC50,"SKMEL-188 melanoma cells; SK-MEL-188, 48 h",9.7 µM
same,melting point,,95 °C
same,IC50,WM-164 cells; [8],13.1 µM
same,IC50,"human dermal fibroblasts; Homo sapiens, Fibroblast, 48 h",28 µM
"CCCCCCCCCCCCCCCCCCNC(=O)[C@@H]1CSC(c2cc(OC)c(OC)c(OC)c2)N1.Cl (mixture of isomers) [Compound 17, (2RS, 4R)-2-(3,4,5-Trimethoxy-phenyl)-thiazolidine-4-carboxylic acid octadecylamide Hydrochloride]",IC50,"SKMEL-188 melanoma cells; SK-MEL-188, 48 h",1.8 µM
same,melting point,,115 °C
same,IC50,WM-164 cells; [8],1.5 µM
same,IC50,[2]; [9],0.48 µM
same,IC50,"human dermal fibroblasts; Homo sapiens, Fibroblast, 48 h",5.2 µM
"CCCCCCCCCCCCCCCCCCNC(=O)[C@@H]1CSC(c2ccc(NC(C)=O)cc2)N1.Cl (mixture of isomers) [Compound 18, (2RS, 4R)-2-(4-Acetylamino-phenyl)-thiazolidine-4-carboxylic acid octadecylamide Hydrochloride]",IC50,"SKMEL-188 melanoma cells; SK-MEL-188, 48 h",2.7 µM
same,melting point,,170 °C
same,IC50,WM-164 cells; [8],5.5 µM
same,IC50,"human dermal fibroblasts; Homo sapiens, Fibroblast, 48 h",> 10 µM
"CCCCCCCCCCCCCCCCCCNC(=O)[C@@H]1CSC(c2ccc(F)cc2)N1 (mixture of isomers) [Compound 19, (2RS, 4R)-2-(4-Fluoro-phenyl)-thiazolidine-4-carboxylic acid octadecylamide]",IC50,[3]; Homo sapiens,6.8 µM
"CCCCCCCCCCCCCCCCCCNC(=O)[C@@H]1CSC(c2ccc([N+](=O)[O-])cc2)N1 (mixture of isomers) [Compound 21, (2RS, 4R)-2-(4-Nitro-phenyl)-thiazolidine-4-carboxylic acid octadecylamide]",IC50,"[1]; Homo sapiens, MCF7, SRB assay",15.3 µM
"CCCCCCCCCCCCCCCCCCNC(=O)[C@@H]1CSC(c2ccc(C#N)cc2)N1 (mixture of isomers) [Compound 22, (2RS, 4R)-2-(4-Cyano-phenyl)-thiazolidine-4-carboxylic acid octadecylamide]",IC50,"[4]; Homo sapiens, TSU-Pr1, 96 h exposure",> 20 µM
same,IC50,"[5]; Homo sapiens, LNCaP",5.9 µM
same,melting point,,90 °C
same,IC50,"[6]; Homo sapiens, DU-145, read-out: IC50 DU-145, 96 h exposure, prostate cancer cell line",> 20 µM
same,IC50,[2]; [9],5 µM
same,IC50,"[7]; Rattus norvegicus, RH7777",> 20 µM
"CCCCCCCCCCCCCCCCCCNC(=O)[C@@H]1CSC(c2c(Cl)cccc2Cl)N1 (mixture of isomers) [Compound 24, (2RS, 4R)-2-(2,6-Dichloro-phenyl)-thiazolidine-4-carboxylic acid octadecylamide]",melting point,,49 °C
"CCCCCCCCCCCCCCCCCCNC(=O)[C@@H]1CSC(c2ccc(-c3ccccc3)cc2)N1.Cl (mixture of isomers) [Compound 27, (2RS, 4R)-2-Biphenyl-4-yl-thiazolidine-4-carboxylic acid octadecylamide Hydrochloride]",melting point,,130 °C
COc1cc(C2NC(C(=O)NCCCNCCCCNCCCN)CS2)cc(OC)c1OC (mixture of isomers) [Compound 224],IC50,[3],5.9 µM
same,IC50,CV-1 cells,30.5 µM
same,IC50,[4]; 96 h exposure,3 µM
same,IC50,[5],10.9 µM
same,IC50,[1]; SRB assay,> 100 µM
same,IC50,[6]; [10],5.1 µM
same,IC50,[2]; 96 h exposure,5 µM
same,IC50,[7],71.9 µM
NCCCNCCCCNCCCNC(=O)C(N)CO (stereo not drawn) [Compound 216],IC50,[3],4.8 µM
same,IC50,CV-1 cells,37.1 µM
same,IC50,[4]; 96 h exposure,2.5 µM
same,IC50,[5],8 µM
same,IC50,[1]; SRB assay,> 100 µM
same,IC50,[6]; [10],4.6 µM
same,IC50,[2]; 96 h exposure,4 µM
same,IC50,[7],58.2 µM
NCCCNCCCCNCCCNC(=O)CN1C(=O)CSC1c1ccccc1 (stereo not drawn) [Compound 220],IC50,[3],7 µM
same,IC50,CV-1 cells,34 µM
same,IC50,[4]; 96 h exposure,3.2 µM
same,IC50,[5],12.2 µM
same,IC50,[1]; SRB assay,> 100 µM
same,IC50,[6]; [10],5.3 µM
same,IC50,[2]; 96 h exposure,5.7 µM
same,IC50,[7],68.4 µM
CCCCCCCCCCCCCCCCCCNC[C@@H](CO)NC [drawing 31],IC50,"SKMEL-188 melanoma cells; SK-MEL-188, 48 h",3.2 µM
same,IC50,WM-164 cells; [8],3.6 µM
same,IC50,"human dermal fibroblasts; Homo sapiens, Fibroblast, 48 h",1.6 µM
CCCCCCCCCCCCCCCCCCNC[C@@H](CO)NC [drawing 32],IC50,SKMEL-188 melanoma cells,3.1 µM
same,IC50,WM-164 cells; read-out: IC50 WM-164,3.6 µM
same,IC50,human dermal fibroblasts,2.3 µM
